# From ChEMBL document CHEMBL1201862, “PubChem BioAssay data set” (2004)
# Active and inactive are the calls of the source. Rule as the data show it, for most assays here: actives have a measured EC50 and inactives only a lower limit.
# Tests used:
# cells = format: functional
# [1] = target: T1, Corticotropin-releasing factor receptor 2/Corticotropin-releasing factor-binding protein (Homo sapiens, UniProt P24387+Q13324); experiment: Dose Response confirmation of uHTS hits for small molecule antagonists of the CRF-binding protein and CRF-R2 receptor complex.; format: functional; details: read-out: IC50_Mean
# T1 sequence (Q13324 whole entry): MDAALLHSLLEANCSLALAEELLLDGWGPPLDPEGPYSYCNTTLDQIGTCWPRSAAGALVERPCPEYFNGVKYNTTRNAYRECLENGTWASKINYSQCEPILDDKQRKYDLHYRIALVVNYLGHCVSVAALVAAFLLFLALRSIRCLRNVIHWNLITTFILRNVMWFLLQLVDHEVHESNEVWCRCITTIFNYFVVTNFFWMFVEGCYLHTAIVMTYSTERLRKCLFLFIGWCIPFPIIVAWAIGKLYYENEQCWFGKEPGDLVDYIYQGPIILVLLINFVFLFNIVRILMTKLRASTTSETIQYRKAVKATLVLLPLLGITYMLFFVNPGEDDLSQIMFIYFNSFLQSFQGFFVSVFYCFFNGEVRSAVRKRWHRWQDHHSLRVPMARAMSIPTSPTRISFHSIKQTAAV
# T1 sequence (P24387 whole entry): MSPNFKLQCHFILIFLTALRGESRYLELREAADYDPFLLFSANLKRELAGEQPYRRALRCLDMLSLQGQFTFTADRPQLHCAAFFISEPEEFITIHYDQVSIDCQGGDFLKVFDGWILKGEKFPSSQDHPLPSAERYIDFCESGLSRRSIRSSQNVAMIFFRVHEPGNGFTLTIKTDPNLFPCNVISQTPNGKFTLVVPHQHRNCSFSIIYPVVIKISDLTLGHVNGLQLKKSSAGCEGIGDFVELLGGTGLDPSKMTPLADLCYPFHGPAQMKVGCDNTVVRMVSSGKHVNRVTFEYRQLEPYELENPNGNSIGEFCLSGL
# [2] = target: T1, Corticotropin-releasing factor receptor 2/Corticotropin-releasing factor-binding protein; experiment: activators of CRF receptor 2 with binding protein – uHTS hits, confirmation (AID 602473); format: functional; details: read-out: EC50_Mean
# [3] = target: T2, RNA-binding protein pos-1 (Caenorhabditis elegans, UniProt G5EF15); experiment: inhibitors of POS-1/mex-3 RNA binding, dose response, biochemical, fluorescence polarization (AID 1964);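 also: purified POS-1 fused to maltose binding protein made in E. coli; potency of compounds blocking POS-1 binding to fluorescent RNA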
# T2 sequence (G5EF15 whole entry): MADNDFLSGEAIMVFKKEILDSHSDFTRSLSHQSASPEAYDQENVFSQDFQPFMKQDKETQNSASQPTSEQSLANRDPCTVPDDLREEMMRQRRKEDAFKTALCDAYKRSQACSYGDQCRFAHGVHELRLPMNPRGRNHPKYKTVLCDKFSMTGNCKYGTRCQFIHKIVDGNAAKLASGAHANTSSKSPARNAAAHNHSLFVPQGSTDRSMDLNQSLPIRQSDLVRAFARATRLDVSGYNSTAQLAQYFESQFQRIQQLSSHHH
# [4] = target: T3, Zinc finger protein mex-5 (Caenorhabditis elegans, UniProt Q9XUB2); experiment: MEX-5/TCR-2 RNA interaction inhibitors, dose response, biochemical, C. elegans, fluorescence polarization (AID 1960)
# T3 sequence (Q9XUB2 whole entry): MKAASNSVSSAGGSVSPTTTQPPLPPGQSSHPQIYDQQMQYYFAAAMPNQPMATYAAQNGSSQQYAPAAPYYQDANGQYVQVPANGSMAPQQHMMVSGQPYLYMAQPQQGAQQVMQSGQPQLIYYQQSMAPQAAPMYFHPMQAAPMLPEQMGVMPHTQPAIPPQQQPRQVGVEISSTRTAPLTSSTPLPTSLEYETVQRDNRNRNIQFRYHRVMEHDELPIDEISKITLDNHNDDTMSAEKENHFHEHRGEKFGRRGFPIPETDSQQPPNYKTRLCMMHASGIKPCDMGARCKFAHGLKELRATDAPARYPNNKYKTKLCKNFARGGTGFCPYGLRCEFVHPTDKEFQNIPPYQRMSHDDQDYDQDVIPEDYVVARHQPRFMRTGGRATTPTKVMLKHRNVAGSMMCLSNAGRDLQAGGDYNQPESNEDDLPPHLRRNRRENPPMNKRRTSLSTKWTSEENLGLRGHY
# [5] = Luminescence Cell-Based Dose Response HTS to Identify Activators of Luciferase Translation or Activity in H4 […] Cells. [Related pubchem assays: 1829 (Project Summary), 1814 (Primary HTS)]; format: functional
# H4 = experiment: Luminescence Cell-Based Dose Response HTS to Identify Activators of 5'UTR Stem-Loop Driven Prion Protein mRNA Translation in H4 Neuroglioblastoma Cells. [Related pubchem assays: 1829 (Project Summary), 1814 (Primary HTS)]; format: functional; details: Homo sapiens
# INS1 = experiment: beta cell apoptosis inhibitors, cytokine rescue, dose response, luminescence, retest (AID 449756); format: functional, cell-based; details: Rattus norvegicus;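 also: cell death triggered by IL-1 beta plus TNF-alpha plus IFN-gamma mixture; protective hits raise ATP signal compared with cytokine alone wells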
# [6] = target: Luciferin 4-monooxygenase (Photinus pyralis, UniProt P08659); experiment: firefly luciferase enzyme inhibitors, dose response, biochemical, luminescence (AID 1891)
# Chain of Luciferin 4-monooxygenase (P08659 whole entry): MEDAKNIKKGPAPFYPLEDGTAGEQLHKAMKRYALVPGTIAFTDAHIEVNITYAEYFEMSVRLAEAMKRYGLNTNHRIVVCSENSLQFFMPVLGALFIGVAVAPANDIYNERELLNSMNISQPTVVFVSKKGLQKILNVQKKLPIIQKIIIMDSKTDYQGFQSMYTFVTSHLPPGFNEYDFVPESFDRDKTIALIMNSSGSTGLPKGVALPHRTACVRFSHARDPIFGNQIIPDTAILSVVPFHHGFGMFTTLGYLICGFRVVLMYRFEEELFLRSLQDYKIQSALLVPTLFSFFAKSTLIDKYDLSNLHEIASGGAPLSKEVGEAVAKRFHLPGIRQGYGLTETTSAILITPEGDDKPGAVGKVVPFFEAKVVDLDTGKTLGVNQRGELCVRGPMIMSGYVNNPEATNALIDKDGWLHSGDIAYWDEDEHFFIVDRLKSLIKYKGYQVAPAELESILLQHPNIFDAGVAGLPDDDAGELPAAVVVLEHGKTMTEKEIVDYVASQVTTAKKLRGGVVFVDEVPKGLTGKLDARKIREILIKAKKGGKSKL
# [7] = Luminescence Cell-Based Dose Confirmation HTS to Identify Inhibitors of Platelet Dense Granule Release. [Related pubchem assays: 1663 (Primary HTS), 1678 (Summary of Project)]; format: functional
# [8] = growth suppression of PTEN-null colon cells, dose response, cell-based, HCT116 PTEN knockout (AID 1047); format: functional;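 also: HCT116 colon tumor cells with PTEN knocked out; cells exposed to compound for 60 hours before readout; potency for loss of cell viability measured by luminescence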
# [9] = target: T4, Replicative DNA helicase DnaB (Mycobacterium tuberculosis, UniProt P9WMR3); experiment: DnaB intein splicing inhibitors, dose response, biochemical, cell-free fluorescence (AID 449749); format: functional
# T4 sequence (P9WMR3 whole entry): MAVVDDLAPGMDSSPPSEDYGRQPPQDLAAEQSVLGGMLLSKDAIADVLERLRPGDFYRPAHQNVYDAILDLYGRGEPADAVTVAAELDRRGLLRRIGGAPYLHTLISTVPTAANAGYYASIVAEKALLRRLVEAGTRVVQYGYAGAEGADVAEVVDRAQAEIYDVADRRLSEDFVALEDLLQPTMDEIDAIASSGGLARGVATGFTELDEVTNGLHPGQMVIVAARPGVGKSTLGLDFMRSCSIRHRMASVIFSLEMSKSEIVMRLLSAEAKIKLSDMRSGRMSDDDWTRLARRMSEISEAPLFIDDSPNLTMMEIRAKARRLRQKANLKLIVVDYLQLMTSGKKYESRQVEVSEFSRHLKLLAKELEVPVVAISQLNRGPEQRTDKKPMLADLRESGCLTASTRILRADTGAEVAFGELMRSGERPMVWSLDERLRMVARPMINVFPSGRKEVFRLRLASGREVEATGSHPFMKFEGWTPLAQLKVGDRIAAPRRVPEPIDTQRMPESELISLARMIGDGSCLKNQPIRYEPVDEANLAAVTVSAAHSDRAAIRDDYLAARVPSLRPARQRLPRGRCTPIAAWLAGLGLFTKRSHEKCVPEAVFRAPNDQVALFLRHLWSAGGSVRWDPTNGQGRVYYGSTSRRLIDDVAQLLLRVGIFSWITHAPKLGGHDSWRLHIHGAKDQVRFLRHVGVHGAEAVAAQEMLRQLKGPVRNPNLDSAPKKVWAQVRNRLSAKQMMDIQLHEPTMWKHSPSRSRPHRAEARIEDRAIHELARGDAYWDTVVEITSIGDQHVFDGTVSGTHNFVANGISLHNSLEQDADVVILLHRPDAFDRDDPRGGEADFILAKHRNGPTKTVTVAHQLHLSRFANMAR
# Protein RecA = target: T5, Protein RecA (Mycobacterium tuberculosis, UniProt P9WHJ3); experiment: Fluorescence Cell-Free Homogeneous Dose Retest to Identify Inhibitors of RecA-Intein Splicing Activity. [Related pubchem assays (depositor defined):AID2097, AID2223, AID489010, AID492950]; format: functional
# T5 sequence (P9WHJ3 whole entry): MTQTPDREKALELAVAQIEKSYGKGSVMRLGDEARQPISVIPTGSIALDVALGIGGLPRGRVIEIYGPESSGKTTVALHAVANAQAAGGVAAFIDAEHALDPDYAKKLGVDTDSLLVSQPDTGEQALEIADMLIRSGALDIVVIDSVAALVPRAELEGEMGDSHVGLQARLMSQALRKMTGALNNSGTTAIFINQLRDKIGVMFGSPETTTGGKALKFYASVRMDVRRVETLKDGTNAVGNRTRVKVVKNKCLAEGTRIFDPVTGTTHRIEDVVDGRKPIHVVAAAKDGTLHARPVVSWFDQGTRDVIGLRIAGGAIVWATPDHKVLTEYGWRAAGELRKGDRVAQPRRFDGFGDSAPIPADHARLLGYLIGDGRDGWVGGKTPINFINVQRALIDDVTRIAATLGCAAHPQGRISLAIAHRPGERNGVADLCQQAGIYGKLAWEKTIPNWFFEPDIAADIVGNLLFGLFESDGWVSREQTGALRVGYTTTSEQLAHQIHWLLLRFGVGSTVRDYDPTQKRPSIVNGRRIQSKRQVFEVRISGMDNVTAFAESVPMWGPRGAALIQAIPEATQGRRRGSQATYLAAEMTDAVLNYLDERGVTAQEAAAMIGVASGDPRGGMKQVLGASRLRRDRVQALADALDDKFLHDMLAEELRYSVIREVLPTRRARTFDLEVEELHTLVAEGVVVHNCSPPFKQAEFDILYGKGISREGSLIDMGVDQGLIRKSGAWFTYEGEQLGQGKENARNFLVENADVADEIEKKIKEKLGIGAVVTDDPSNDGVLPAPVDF
smiles,measurement,setting,value
COc1ccc(C(=O)C2CCCN(C(=O)c3ccc(CSC)o3)C2)cc1F (centres undefined),IC50,cells,41.5 µM (active)
NNC(=S)NC1CCS(=O)(=O)C1 (centres undefined),IC50,[1],> 47.1 µM (inactive)
same,EC50,[2],> 53 µM (inactive)
CCOc1ccc(N2C(=O)NC(=O)/C(=C/Nc3ccc(N(CC)CC)cc3)C2=O)cc1,EC50,[3],151 µM (active)
same,EC50,[2],10.4 µM (active)
same,EC50,[4],106 µM (active)
Cc1csc(NC(=O)c2nc3nccc(C)n3n2)n1,EC50,[5],36.1 µM (active)
same,EC50,H4,37.4 µM (active)
CCOC(=O)COc1ccc2c(c1)C(=O)CC(C)(c1cccnc1)O2 (centres undefined),IC50,cells,11.2 µM (active)
O=S1(=O)CCN(Cc2csc(-c3cccs3)n2)CC1,AC50,INS1,145 µM (active)
same,EC50,[6],> 112 µM (not active)
same,EC50,[7],17.9 µM (active)
Cc1ccc(NC(=O)C(=O)NNC(=O)c2ccccc2C)cc1Cl,IC50,cells,6.8 µM (active)
Cc1n[nH]c2c1C(C1CC=CCC1)C(C#N)=C(N)O2 (centres undefined),EC50,[8],34.7 µM (active)
CCOC(=O)c1c(CCl)nc2ccccc2c1-c1ccccc1,AC50,[9],9.56 µM (active)
same,EC50,Protein RecA,12.6 µM (active)
Cc1n[nH]c2c1C(c1cccs1)C(C#N)=C(N)O2 (centres undefined),AC50,[9],24.7 µM (active)
same,EC50,Protein RecA,4.74 µM (active)
COc1ccc(OCCOC(=O)c2cccs2)cc1,IC50,cells,23.5 µM (active)
